Data as given in US20090099102A1, “Ginkgolides in the Treatment and Prevention of Ovarian Cancer” (priority 2005, published 2009).
Entries after “also recorded” stand apart in the source; their conditions may differ.

Key:
OVCA429 cells [1] = test: Cell proliferation (MTT) assay, serous cancer cells OVCA429; format: cell-based, human; details: for inhibitory pattern in ovarian cancer cells (discussion): cell line not given; for cell proliferation compared to the control treatments: p<0.0001
Experimental: (§1) Immortalized normal human ovary epithelial cell (HOSEE6E7) and a serous type ovarian cancer cell lines (OVCA433) previously established in our laboratory (Tsao, et al., Exp. Cell Res. 218:499-507 (1995); Kim, et al., Jama 287:1671-1679 (2002)) were used in this study. Two mucinous ovarian cancer cell lines (RMUG-S and RMUG-L) were purchased from The Japanese Collection of Research Bioresource (Tokyo, Japan). RMUG-L cells were cultured in MCDB105/M199 medium as above, and RMUG-S cells were cultured in F-12 medium with 10% Fetal Bovine Serum and 1% antibiotic as above. Cells were maintained at 37° C. under 5% CO2 and 95% air in a high humidity chamber. Monolayer cells at 60-80% confluence were enzymatically removed using trypsin/EDTA and plated in 96 well flat-bottomed plates at concentration of 5×10^3 per well for HOSE-E6E7 cells, 1×10^3 per well for OVCA429 and RMUG-L, respectively. Treatments were added 24 hours after plating. Ten mM stock solutions of Ginkgo biloba, quercetin, kaempferol, ginkgolide A, and ginkgolide B, were prepared in DMSO and cells were treated with 10, 50 and 100 μM concentrations of each component. Concentration of standard Ginkgo biloba treatment was calibrated according to the fact that, the standard Ginkgo biloba mixture contains about 4-6% of total active terpene lactons, and the estimated average of the molecular weight of the mixture is about 300. An equal volume of DMSO (less than <1% concentration) was used as control treatment.
(§2) Methods for the cell proliferation and viability assays were adopted from MTT (Mosmann, J. Immunol. Methods 65:55-63 (1983), XTT (Scudiero et al., Cancer Res. 48:4827-4833, (1988)) and MTS (Cory, et al., Cancer Commun. 3: 207-212 (1991)), which developed as WST-1 (Roche Applied Science, Germany). Briefly, the tetrazolium salts are cleaved to formazan by cellular enzymes. An expansion in the number of viable cells results in an increase in the overall activity of mitochondrial dehydrogenases in the sample. This augmentation in enzyme activity leads to an increase in the amount of formazan dye formed, which directly correlates with the number of metabolically active cells in the culture. After 72 hours of treatment, 15 μl of the MTT dye solution was added to each well and the plates were incubated at 37° C. for 4 hours in a humidified chamber. After incubation, 100 μl of the Solubilization/Stop solution was added to each well. One hour after the addition of the solubilization solution, the contents of the wells were mixed and read by the 96-well plate scanning spectrophotometer (μQuant) and quantitative software (KC-junior, Bio-Tek Instruments, Inc.) at an absorbance of 630 nm for quantitative analysis. Data was collected from at least 3 separate experiments, and at least 8 repeats were performed for each individual treatment. The cell proliferation rate was expressed as a percentage of the control, which had been treated with an equivalent volume of DMSO (as 100%).
Logistic regression analysis was used to calculate the exposure odds ratio to estimate the relative risk (RR) for ovarian cancer associated with the use of any or a particular type of herbal remedy. Adjustment variables included age, study center, oral contraceptive (OC) use, parity, and Jewish ethnic background. Additionally, we adjusted individually for categories of consumption of vitamin A, carotene, tomatoes and tomato sauce and juice, and raw carrots based upon previous work showing the importance of these foods and vitamins on ovarian cancer risk in our data (Cramer, et al., Int. J. Cancer 94:128-134 (2001)). For the data from the cell proliferation assay, linear regression models were applied to analyze mean OD values from the MTT assays across the different concentration treatments, adjusted for individual experiments. We used a partial F test to determine whether mean OD levels varied across the four concentrations (control, 10, 50, 100 μM). […]

RMUG-L cells [2] = test: Cell proliferation (MTT) assay, mucinous cancer cells RMUG-L; format: cell-based, human; details: 10, 50 and 100 μM (extract: equivalent of ginkgolides), 72 h
Experimental: as §1, §2
Logistic regression analysis was used to calculate the exposure odds ratio to estimate the relative risk (RR) for ovarian cancer associated with the use of any or a particular type of herbal remedy. Adjustment variables included age, study center, oral contraceptive (OC) use, parity, and Jewish ethnic background. […]

HOSE-E6E7 cells [3] = test: Cell proliferation (MTT) assay, HOSE-E6E7 cells; format: cell-based, human; details: 10, 50 and 100 μM (extract: equivalent of ginkgolides), 72 h
Experimental: Immortalized normal human ovary epithelial cell (HOSEE6E7) and a serous type ovarian cancer cell lines ([…]) previously established in our laboratory (Tsao, et al., Exp. Cell Res. 218:499-507 (1995); Kim, et al., Jama 287:1671-1679 (2002)) were used in this study. Two mucinous ovarian cancer cell lines (RMUG-S and RMUG-L) were purchased from The Japanese Collection of Research Bioresource (Tokyo, Japan). RMUG-L cells were cultured in MCDB105/M199 medium as above, and RMUG-S cells were cultured in F-12 medium with 10% Fetal Bovine Serum and 1% antibiotic as above. Cells were maintained at 37° C. under 5% CO2 and 95% air in a high humidity chamber. Monolayer cells at 60-80% confluence were enzymatically removed using trypsin/EDTA and plated in 96 well flat-bottomed plates at concentration of 5×10^3 per well for HOSE-E6E7 cells, 1×10^3 per well for OVCA429 and RMUG-L, respectively. Treatments were added 24 hours after plating. […]
as §2, with “After 72 hours of treatment, 15 μl of the MTT dye solution was added to each well and the plates were incubated at 37° C. for 4 hours in a humidified chamber. After incubation, 100 μl of the Solubilization/Stop solution was added to each well.” left out, “Data was collected from at least 3 separate experiments, and at least 8 repeats were performed for each individual treatment.” left out, “100%). […]” for “100%).”

OVCA429 cells [4] = test: Cell cycle analysis (propidium iodide flow cytometry), OVCA429; format: cell-based, human; details: for S-phase DNA contents / G0/G1 phase DNA: OVCA429, 100 μM; for cell cycle effect: serous type cancer cells
Experimental: (§3) For the cell cycle analysis, ovarian cells were plated in 75 cm^2 flasks and treated with 100 μM of ginkgolide A and B; the control was treated with an equal amount of DMSO. After 24 and 48 hours, cells were harvested by trypsin digestion and followed by PBS washing and spun for 5 min at room temperature at 12,000 rpm. Cells were fixed with 70% ethanol (in PBS buffer) by suspending the cell pellet and incubated at room temperature for 5 minutes or at −20° C. for two days. The fixed cells were washed once with PBS and then treated with RNase A (50 ug/ml) at 37° C. for 30-60 min. After a single washing with PBS to remove RNase A, propidium iodide (25 μg/ml in PBS buffer) was added. Cells were subjected to analysis using a FACS Calibur Flow Cytometer (Becton Dickson, San Jose, Calif.). Each experiment was repeated at least three times and the cell cycle profiles and data were analyzed by ModFit LT software (Verity Software House, Inc., Topsham, Me.).

[5] = 10 young healthy volunteers; single oral dose of 80 mg Ginkgo biloba (EGb 761 formula); cited from earlier work
smooth muscle cell = details: related to G1 to S phase blockage; cited from earlier work
HOSE-E6E7 cells [6] = test: Cell cycle analysis, HOSE-E6E7; format: cell-based, human; details: 100 μM, 24 h
Experimental: as §3

RMUG-S cells = test: Cell cycle analysis, RMUG-S; format: cell-based, human; details: after treatment
Experimental: as §3

RMUG-L cells [7] = test: Cell cycle analysis, RMUG-L; format: cell-based, human; details: 48 h
Experimental: as §3

[8] = 48 h, control 43% (ginkgolide B), 36.5% (ginkgolide A)
[9] = 48 h, control 47.9% (ginkgolide B), 50.7% (ginkgolide A)

SMILES | effect on cell proliferation, exception to 'little effect' (OVCA429 cells [1]; OVCA429, 50 and 100 μM) | inhibitory pattern in ovarian cancer cells (discussion) (OVCA429 cells [1]) | effect on cell proliferation (words) (RMUG-L cells [2]) | effect on cell proliferation (words) (HOSE-E6E7 cells [3]) | effect on cell proliferation (words) (OVCA429 cells [1]; OVCA429, 10, 50 and 100 μM (extract: equivalent of ginkgolides), 72 h) | S-phase DNA contents (OVCA429 cells [4]; 24 h, control 43%) [%] | G0/G1 phase DNA (OVCA429 cells [4]; 24 h, control 47.9%) [%] | S-phase DNA contents (OVCA429 cells [4]; [8]) [%] | G0/G1 phase DNA (OVCA429 cells [4]; [9]) [%] | cell cycle effect (OVCA429 cells [4]) | average concentration measured [5] [ng/mL] | cell proliferation compared to the control treatments (OVCA429 cells [1]; OVCA429, 10, 50 and 100 μM, 72 h) | inhibition of smooth muscle cell proliferation (smooth muscle cell) | effect on DNA content of G0/G1, S and G2/M phases (HOSE-E6E7 cells [6]) | changes in G0/G1, S-phase and M-phase DNA distribution (RMUG-S cells) | S-phase DNA (RMUG-L cells [7]; control 28.7%) [%] | G0/G1 phase DNA (RMUG-L cells [7]; control 57%) [%] | cell proliferation compared to the control treatments (OVCA429 cells [1]; OVCA429, 50 and 100 μM, 72 h) | effect on cell proliferation (words) (RMUG-L cells [2]; listed as Ginkgolide A)
O=c1c(O)c(-c2ccc(O)c(O)c2)oc2cc(O)cc(O)c12 [quercetin, reference compound] | OVCA429 with 50 and 100 μM quercetin | significant inhibitory pattern | little effect | little effect |  |  |  |  |  |  |  |  |  |  |  |  |  |  | 
O=c1c(O)c(-c2ccc(O)cc2)oc2cc(O)cc(O)c12 [kaempferol, reference compound] |  |  | little effect |  | little effect |  |  |  |  |  |  |  |  |  |  |  |  |  | 
CC1C(=O)OC2C(O)C34C5CC(C(C)(C)C)C36C(OC(=O)C6O)OC4(C(=O)O5)C12O (stereo not shown) [ginkgolide B] |  | significant inhibitory pattern | little effect; also recorded: no effect | little effect |  | 35.8 | 51.5 | 24 | 65.1 | cell cycle blockage at G0/G1 to S phase checking point | 4 | about 60% | inhibit smooth muscle cell proliferation in a concentration dependent manner | neither ginkgolide A nor ginkgolide B (100 μM) showed a significant effect | no observed changes | 40.9 | 44 |  | 
C[C@@H]1C(=O)O[C@H]2C[C@@]34[C@H]5C[C@@H](C(C)(C)C)[C@]36[C@@H](OC(=O)[C@@H]6O)O[C@@]4(C(=O)O5)[C@]21O [ginkgolide A] |  | significant inhibitory pattern | no effect | little effect |  |  |  | 10.3 | 86.1 | cell cycle blockage at G0/G1 to S phase checking point | 15 |  |  | neither ginkgolide A nor ginkgolide B (100 μM) showed a significant effect |  |  |  | about 60% | little effect
